The source of these data is US20130029959A1, “COMPOSITIONS AND METHODS FOR THE TREATMENT OF CANCER” (Massachusetts Institute of Technology, priority 2011, published 2013).

Test [1] has as its system human lung carcinoma A549 cells. Description: MTT assay, A549 cells. Format: cell-based.
Protocol: (§6) Solutions of the platinum compounds were freshly prepared in sterile PBS before use and their concentrations quantitated by atomic absorption spectroscopy. Cells were seeded on a 96-well plate (1200 cells per well for cancer cells and 1800 cells per well for the normal lung fibroblasts) in 100 μL RPMI or DMEM media, and incubated for 24 h. […] The cells were then treated with 20 μL of 3-(4,5-dimethylthiazol-2-yl)-2,5-diphenyltetrazolium bromide (MTT) (5 mg/mL in PBS) and incubated for 4 h. The medium was removed, 100 μL of DMSO was added to the cells, and the absorbance of the purple formazan was recorded at 560 nm using a BioTek Synergy HT multi-detection microplate plate reader. Each condition was performed in triplicate and three independent experiments were carried out for each cell line.
Solutions of the platinum agents were freshly prepared in sterile PBS before use and the platinum content was quantitated by AAS. Cells were seeded on 96 well plates (1200 cells per well) in 100 μL RPMI or DMEM media\ and incubated for 24 hours. […] The cells were then treated with 20 μL of 3-(4,5-dimethylthiazol-2-yl)-2,5-diphenyltetrazolium bromide (MTT) (5 mg/mL in PBS) and incubated for 4 h. The medium was removed, 100 μL of DMSO were added to the cells, and the absorbance of the purple formazan was recorded at 570 nm using a BioTek Synergy HT multi-detection microplate plate reader. For each cell line, three independent experiments were carried out in triplicate.
In test [2] the test system is GLuc expression from transfected A549 cells. Description: GLuc transcription assay, globally platinated probes, A549. Format: cell-based, human. The conditions noted are these: for transcription level (normalized against unplatinated plasmid): Pt/DNA ratio of […] for phenanthriplatin; for transcription inhibition, in words: globally platinated probes. The protocol: (§1) Transfection of transcription probes into A549 and HT29 cells with the pGLuc plasmid was carried out using liposomal transfecting agents. Determination of expression levels was tested by Luciferase assays monitored by a luminometer (J. Am. Chem. Soc. 2010, 132, 7429-7435). A549 cells were plated in 96-well plates at 2,000 cells/well and HT29 cells were plated in 96-well plates at 6,000 cells/well. After 48 h incubation (at ˜30% confluence), cells were transfected with 50 ng of platinated plasmids in 25 μL Opti-MEM and 0.125 μL Lipofectamine 2000, and subsequently 50 μL of antibiotics-free DMEM supplemented with 10% FBS. After 2 h, the cells were washed with medium and 100 μL of fresh medium was added. The experiment was carried out in quadruplicate.
(§2) GLuc activity was monitored using a luminescence plate reader (Synergy 2, BioTek, Winooski, Vt., USA). A 10 μL volume of medium at different time points (12, 24, 36, 48, 60 h) was transferred into opaque white 96-well plates, and 25 μL of GLuc assay solution (10 μM colelenterazine (NanoLight Technologies, Pinetop, Ariz., USA) in 2.5 mM acidified methanol (100 mM HCl), buffer (10 mM Tris-HCl pH 7.8, 1 mM EDTA, 0.6 M NaCl)) was added by the automatic injector of the instrument.
(§3) Investigations of the cellular processing of Pt-DNA lesions are important for understanding the mechanism of action of platinum drugs. One of the major consequences of Pt-DNA damage is transcription inhibition, the extent of which dictates the efficacy of Pt drugs.
(§4) A549 or HT29 cells were transfected using these platinated transcription probes for 2 h at 37° C. and cell media were collected at 12, 24, 36, 48, and 60 h after the transfection. The levels of GLuc expression in cells were measured using a luminometer. The intensity values were normalized against controls (unplatinated plasmid). Transcription profiles were obtained by plotting normalized levels of GLuc expression against platination levels (Pt/plasmid ratio) at five different time points (FIG. 5). […] In FIG. 5: transcription profiles of globally platinated probes in A549 (top) and HT29 (bottom) cells.
(§5) In another embodiment, A549 or HT29 cells were transfected using the platinated transcription probes, and transcription levels were investigated by determining GLuc expression as measured by […] following addition of coelenterazine as a substrate for the exported enzyme. The emission intensities were normalized against unplatinated plasmids as a control. Transcription profiles were obtained by plotting normalized levels of GLuc expression against platination levels (Pt/plasmid ratio) at five different time points. […] An increase in D0 value at different time points represents restoration of transcription.

Test [3] in a line: Aquation in D2O by 1H NMR. The conditions noted are these: 37° C.
Protocol: The 1-D ^1H NMR kinetic studies were performed in duplicate as a standard time-arrayed experiment using a variable delayed list. Incremented 1-D spectra were processed in exactly the same way and signals of aromatic amine ligands from platinum compounds were integrated. The relative concentrations of the platinum compound at each time point were calculated from peak integrals. […] Reactions of platinum compounds with 5′-dGMP were performed in NMR tubes containing 2 mM of the platinum compounds and 32 mM (16 equiv) of 5′-dGMP in 10 mM PBS buffer, D2O, pH*7.4 at 37° C.
The test system of test [4] is GLuc expression from transfected HT29 cells. Description: GLuc transcription assay, globally platinated probes, HT29. It is filed as cell-based, human. The conditions noted are these: for transcription level (normalized against unplatinated plasmid): Pt/DNA ratio of […] for phenanthriplatin; for transcription inhibition, in words: globally platinated probes. The protocol: as §1, §2, §3, §4, §5

Another test deals with calf thymus DNA. Kind of test: Ethidium bromide DNA-binding competition, Scatchard analysis. Details: key: competitive (type A); non-competitive (type D); both (type B); No inhibition of ethidium binding is labeled as type C.
The conditions of test [5]: 16 equiv 5′-dGMP, 37° C., PBS pH 7.4.
Protocol: The 1-D ^1H NMR kinetic studies were performed in duplicate as a standard time-arrayed experiment using a variable delayed list. Incremented 1-D spectra were processed in exactly the same way and signals of aromatic amine ligands from platinum compounds were integrated. The relative concentrations of the platinum compound at each time point were calculated from peak integrals. […] Reactions of platinum compounds with 5′-dGMP were performed in NMR tubes containing 2 mM of the platinum compounds and 32 mM (16 equiv) of 5′-dGMP in 10 mM PBS buffer, D2O, pH*7.4 at 37° C. Deuterated 3-(trimethylsilyl)propionic acid sodium salt (TMS-PFASS) was used as an internal standard. The pH* values are the measured pH values without correction for the effect of deuterium on the electrode.
The subject of a further test is pGLuc plasmid. Kind of test: Global platination of pGLuc plasmid. The conditions noted are these: for level of DNA-bound compound per amount added (rb vs. rf): 16 h, 24 mM HEPES pH 7.4, 10 mM NaCl; for level of DNA-bound compound per amount added (rb vs. rf) / rb (bound Pt/nucleotide): 37° C.
Test [6] concerns normal lung fibroblast MRC5. Description: MTT assay, MRC5 cells. Format: cell-based, human. The conditions noted are these: MRC5, 72-h incubation, Table 5. In general terms: Formazan colour is commonly taken as a measure of viable cells.
Protocol: as §6
For test [7] the following is noted: equimolar N-AcMet, 37° C.
Protocol: NMR spectra were collected on a Varian 500 spectrometer equipped with a triple-resonance broadband inverse probe and a variable temperature unit. The 1-D ^1H NMR kinetic studies were performed in duplicate as a standard time-arrayed experiment using a variable delayed list. Incremented 1-D spectra were processed in exactly the same way and signals of aromatic amine ligands from platinum compounds were integrated. The relative concentrations of the platinum compound at each time point were calculated from peak integrals. […] Reactions of platinum compounds with N-AcMet were performed in NMR tubes containing 2 mM of the Pt complex and 2 mM (1 equiv) of N-AcMet in 10 mM PBS buffer, D2O, pH*7.4 at 37° C. […] Deuterated 3-(trimethylsilyl)propionic acid sodium salt (TMS-PFASS) was used as an internal standard. The pH* values are the measured pH values without correction for the effect of deuterium on the electrode.
(pH*=refers to a pH measurement uncorrected for the effect of deuterium on the electrode.)
The test system of test [8] is human bone sarcoma U2OS cells. Description: MTT assay, U2OS cells. It is filed as cell-based. The conditions noted are these: 72-h incubation. The protocol:
Human colon carcinoma HT29, human breast carcinoma MCF7, human bone sarcoma U2OS, human prostate carcinoma PC3, and human cervix carcinoma HeLa cells were obtained from the ATCC. A2780/CP70 cisplatin-resistant human ovarian cancer cells were kindly provided by Dr. Stephen B. Howell (Moores UCSD Cancer Center) and the human lung carcinoma cell lines A549 and normal lung fibroblast MRC5 by David E. Root (Whitehead Institute for Biomedical Research). Cells were incubated at 37° C. in 5% CO2 and grown in RPMI (HT29, A2780/CP70, and PC3) or DMEM (A549, MRC5, HeLa, MCF7, and U2OS) medium supplemented with 10% fetal bovine serum and 1% penicillin/streptomycin. Cells were passed every 3 to 4 days and restarted from a frozen stock upon reaching pass number 20.
Solutions of the platinum compounds were freshly prepared in sterile PBS before use and their concentrations quantitated by atomic absorption spectroscopy. […] The cells were then treated with 20 μL of 3-(4,5-dimethylthiazol-2-yl)-2,5-diphenyltetrazolium bromide (MTT) (5 mg/mL in PBS) and incubated for 4 h. The medium was removed, 100 μL of DMSO was added to the cells, and the absorbance of the purple formazan was recorded at 560 nm using a BioTek Synergy HT multi-detection microplate plate reader. Each condition was performed in triplicate and three independent experiments were carried out for each cell line. […]

The test system of another test is NTera2 (Testis) cells. Description: MTT assay, NTera2 cells. It is filed as cell-based, human. The conditions noted are these: 72-h incubation, Table 3.
The test system of test [9] is human colon carcinoma HT29 cells. Description: MTT assay, HT29 cells. It is filed as cell-based. The conditions noted are these: HT29, 72-h incubation, Table 5.
Protocol: Solutions of the platinum compounds were freshly prepared in sterile PBS before use and their concentrations quantitated by atomic absorption spectroscopy. Cells were seeded on a 96-well plate (1200 cells per well for cancer cells and 1800 cells per well for the normal lung fibroblasts) in 100 μL RPMI or DMEM media, and incubated for 24 h. […] The medium was removed, 100 μL of DMSO was added to the cells, and the absorbance of the purple formazan was recorded at 560 nm using a BioTek Synergy HT multi-detection microplate plate reader. […]
The subject of test [10] is human cervix carcinoma HeLa cells. Kind of test: MTT assay, HeLa cells. It is filed as cell-based. The conditions noted are these: 72-h incubation, Table 5.
Protocol: as §6
Solutions of the platinum agents were freshly prepared in sterile PBS before use and the platinum content was quantitated by AAS. […] The medium was removed, 100 μL of DMSO were added to the cells, and the absorbance of the purple formazan was recorded at 570 nm using a BioTek Synergy HT multi-detection microplate plate reader. […]

“Also recorded” adds a separate entry of the source.

Protocol for NTera2 (Testis) cells: as §6
Description for calf thymus DNA: Using this approach, it is possible to determine whether the inhibition of ethidium binding is competitive (type A), non-competitive (type D), or both (type B). No inhibition of ethidium binding is labeled as type C.
Protocol for pGLuc plasmid: The resulting mixtures were dialyzed (molecular weight cut-off 3.5 kDa) against ddH2O overnight at 4° C. with five changes of ddH2O. The rb values (bound Pt/nucleotide) were determined by UV/Vis and atomic absorption spectroscopy.
In one embodiment, the ratio of bound platinum per plasmid was determined by measuring the Pt concentration by atomic absorption spectroscopy and the DNA concentration by UV/Vis spectroscopy.

Broadly, the IC50 is the point on the concentration scale where inhibition reaches its midpoint. With pyriplatin, the IC50 in [1] (A549, 72-h incubation, Table 5) is 62.1 ± 2.3 µM; in test [6], 82.1 µM. Also, the “transcription level (normalized against unplatinated plasmid)” value in test [2] (12 h) came to 55.2%; in test [2] (60 h), 66.8%; in test [4] (12 h) it was 55.3%; in test [4] (60 h) it was 75.2%. Besides, the “transcription inhibition, in words” value in [2] and in test [4] was “less efficient than that of either cisplatin or phenanthriplatin by a factor of two” each time. Also, the “time to complete aquation (equilibrium with aqua analogue)” value in test [3] was at most 1 h. For the same compound, the “type of inhibition of ethidium binding” value in the test with calf thymus DNA (12-h incubation period) and in the test on calf thymus DNA (1 min incubation period) was “C” each time. For the same compound, the “pseudo-first order rate constant, reaction with 5′-dGMP” value in [5] is 0.29 h⁻¹. The “level of DNA-bound compound per amount added (rb vs. rf)” value in the test with pGLuc plasmid is given as “almost identical to that of cisplatin”. Besides, the Pt per plasmid with pGLuc plasmid (rf 0.0016) is 13.33 Pt per plasmid; with pGLuc plasmid (rf 0.004), 31.19 Pt per plasmid; in the test on pGLuc plasmid (rf 0.0076), 57.96 Pt per plasmid; with pGLuc plasmid (rf 0.015), 117.31 Pt per plasmid. The “rb (bound Pt/nucleotide)” value in the test with pGLuc plasmid (rf 0.0016, 16 h) is listed as 0.0017; in the test on pGLuc plasmid (rf 0.004, 16 h) it was 0.0039; with pGLuc plasmid (rf 0.0076, 16 h), 0.0073; in the test on pGLuc plasmid (rf 0.015, 16 h) it was 0.0015. Further, the “reaction with N-AcMet more rapid than that for phenanthriplatin” value in test [7] is listed as above 10 fold. For the same compound, the “second-order rate constant, reaction with N-AcMet” value in test [7] was 0.156 M⁻¹ s⁻¹.

Take “cis-[Pt(NH3)2(phenanthridine)Cl]NO3 [phenanthriplatin]”: the “transcription inhibition, in words” value in test [2] and in test [4] was “as strongly as cisplatin; also recorded: as efficiently as cisplatin” throughout. Further, the “time to complete aquation (equilibrium with aqua analogue)” value in test [3] is given as at most 1 h. Further, the “type of inhibition of ethidium binding” value is reported as “D” in the test with calf thymus DNA (12-h incubation period) and “C” in the test on calf thymus DNA (1 min incubation period). In the test with pGLuc plasmid, the “level of DNA-bound compound per amount added (rb vs. rf)” value is given as “almost identical to that of cisplatin”. Besides, the “rb (bound Pt/nucleotide)” value worked out at 0.0015 with pGLuc plasmid (rf 0.0008, 16 h); 0.0019 in the test on pGLuc plasmid (rf 0.0019, 16 h); 0.0030 with pGLuc plasmid (rf 0.0029, 16 h); 0.0053 in the test with pGLuc plasmid (rf 0.0060, 16 h).

Regarding `O=C1[O][Pt]2([NH][C@@H]3CCCC[C@H]3[NH]2)[O]C1=O` [oxaliplatin], the IC50 in test [8] (U2OS (Bone), Table 3) worked out at 6.67 ± 0.59 µM; in test [1] (A549 (Lung), 72-h incubation, Table 3) it was 8.79 ± 0.26 µM; in the test on NTera2 (Testis) cells it was 1.21 ± 0.06 µM.

As for `O=[N+]([O-])[O-].[NH3+][Pt-2]([NH3+])([Cl])[n+]1cccc2ccccc21` (stereo not drawn) [cis-[Pt(NH3)2(quinoline)Cl]NO3], the IC50 came out at 23.5 ± 2.7 µM in [8] (U2OS, Table 5); 6.11 ± 0.68 µM in [1] (A549, 72-h incubation, Table 5); 38 ± 4.5 µM in test [9]; 12.2 ± 0.8 µM in test [10]; 23.5 ± 1.6 µM in test [6].
